Laboratory results from PubChem BioAssay (NCI).
“And” between values parts separate entries of the source, which are not always exact repeats. Equal entries are not always repeated.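 Where inhibition never reached the appropriate level, the endpoint shown equals the highest concentration tested. Otherwise, values were interpolated linearly from a five-concentration, 48-hour dose response in 96-well plates. The concentration for 50% growth inhibition is given as GI50. Definition used: TGI = concentration required for complete inhibition of growth.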

What was measured:
Experiment in all cases: DTP human tumour cell line panel, 48 h
SNB-19 CNS = tested on: SNB-19 CNS
BT-549 breast = tested on: BT-549 breast
HL-60(TB) leukemia = tested on: HL-60(TB) leukemia
HT29 colon = tested on: HT29 colon
SR leukemia = tested on: SR leukemia
CAKI-1 renal = tested on: CAKI-1 renal
RPMI-8226 leukemia = tested on: RPMI-8226 leukemia
SF-295 CNS = tested on: SF-295 CNS
SK-MEL-5 melanoma = tested on: SK-MEL-5 melanoma
NCI-H460 lung = tested on: NCI-H460 lung

| Structure (SMILES) | GI50 (SNB-19 CNS) [µM] | TGI (SNB-19 CNS) [µM] | GI50 (BT-549 breast) [µM] | TGI (BT-549 breast) [µM] | GI50 (HL-60(TB) leukemia) [µM] | TGI (HL-60(TB) leukemia) | GI50 (HT29 colon) [µM] | TGI (HT29 colon) [µM] | GI50 (SR leukemia) [µM] | TGI (SR leukemia) [µM] | GI50 (CAKI-1 renal) [µM] | TGI (CAKI-1 renal) | GI50 (RPMI-8226 leukemia) [µM] | TGI (RPMI-8226 leukemia) [µM] | GI50 (SF-295 CNS) | TGI (SF-295 CNS) [µM] | GI50 (SK-MEL-5 melanoma) [µM] | TGI (SK-MEL-5 melanoma) [µM] | GI50 (NCI-H460 lung) [µM] | TGI (NCI-H460 lung) |
| --- | --- | --- | --- | --- | --- | --- | --- | --- | --- | --- | --- | --- | --- | --- | --- | --- | --- | --- | --- | --- |
| Clc1ccc2c(c1)N(C1CCCN(Cc3ccccc3)C1)c1ccccc1S2 (centres undefined) | 6.02 | > 100 | 7.39 | 77 | 4.52 | 72.5 µM | 11.5 | > 100 | 3.01 | 32.7 | 4.38 | 24 µM | 3.91 | > 100 | 2.44 µM | 6.82 | 5.71 | 25.3 | 3.17 | 10.4 µM |
| COC1C=COC2(C)Oc3c(C)c(O)c4c(O)c(c(C5SCCS5)c(O)c4c3C2=O)NC(=O)/C(C)=C\C=CC(C)C(O)C(C)C(O)C(C)C(OC(C)=O)C1C (centres undefined) |  | 17.7 |  | 16.2 |  | 12.5 µM |  | 13 |  | 7.14 |  | 22.8 µM |  | 8.58 |  | 17.6 |  | 20.8 |  | 18 µM |
| CC(=O)Nc1ccc(S(=O)(=O)N=S(C)C)cc1 |  | > 100 |  | > 100 |  | > 100 µM |  | > 100 |  | > 100 |  | > 100 µM |  | > 100 |  | > 100 |  |  |  | > 100 µM |
| Fc1ccc(-c2nn3ccccc3c2-c2ccncc2)cc1 | > 25 | > 25 | > 25 | > 25 | > 25 | > 25 µM | 14 | > 25 | > 25 | > 25 | 11.8 | > 25 µM | > 25 | > 25 | > 25 µM | > 25 | > 22.8 | > 25 | > 25 | > 25 µM |
| CN(C)Cc1ccc(NC(=O)c2cncc(C#Cc3cnc(N)c4ncccc34)c2)cc1F |  |  | 19.4 | 39.6 | 7.33 | 35.7 µM |  |  | 1.93 | 5.93 | 15.8 | 32.3 µM | 1.97 | 4.75 | 10.6 µM | 26.5 | 1.7 | 3.29 | 1.93 | 3.63 µM |
| N#Cc1nc(C#N)c(Sc2ccccc2)c(Sc2ccccc2)c1Sc1ccccc1 | 2.5 | 5.9 | 0.21 | 4.27 | 1.88 | > 29.5 µM | 0.407 |  | 0.305 | > 100 | 1.22 | > 100 µM | 0.638 | > 28.3 | 2.75 µM | > 29.1 | 1.31 | 2.69 | 2.35 | > 27.6 µM |
| Cn1c(=O)c(Oc2ccc(F)cc2F)cc2cnc(N[C@@H]3CCOC3)nc21 | > 25 | > 25 | > 25 | > 25 | > 25 | > 25 µM | > 25 | > 25 | > 25 | > 25 | > 25 | > 25 µM | > 25 | > 25 | > 25 µM | > 25 | > 25 | > 25 | > 25 | > 25 µM |
| Nc1ncc(-c2ccc3ncnc(N4CCc5ccc(Cl)cc54)c3c2)cc1C(F)(F)F | 2.63 | 23.7 | 1.82 | 17.2 | 0.723 | > 100 µM | 1.83 | 16.2 | 2.55 | > 100 | 0.457 | 5.56 µM | 2.82 | > 100 | 1.4 µM | 16.5 | 5.08 | 28.8 | 1.02 | 13.7 µM |
| O=C(/C=C/c1ccccn1)c1ccc(OCc2nnc(-c3ccc(Cl)cc3)o2)cc1 | 1.86 | 3.98 | 1.92 | 3.46 | 2.46 | 7.68 µM | 1.85 | 3.99 | 0.291 | 1.93 | 1.69 | 3.24 µM | 0.296 | 1.06 | 1.68 µM | 3.33 | 1.56 | 3.14 | 3.24 | 11.1 µM |
| O=C(c1ccc([N+](=O)[O-])cc1)C(Br)C(Br)c1ccnc2ccccc12 (centres undefined) |  | 30.8 |  | 20 |  | 9.99 µM |  | 11.7 |  | 5.69 |  | 24.6 µM |  | 5.91 |  | 21.1 |  | 20 |  | 13.8 µM |
| O=C(Nc1cc(F)c(F)cc1C(=O)O)c1ccc(-n2ccnc2)nn1 | > 100 | > 100 | 81.9 | > 100 | 38.9 | > 100 µM | > 100 | > 100 | 27.9 | > 100 | > 100 | > 100 µM | > 100 | > 100 | > 100 µM | > 100 | > 100 | > 100 | > 100 | > 100 µM |
| COc1ccc2c(c1)CCc1cc(OC)ccc1/[N+]([O-])=[N+]\2[O-] |  | 39 |  | 29.8 |  | 27.6 µM |  | 45.2 |  | > 42.7 |  | 34 µM |  | > 25.1 |  | 37.6 |  | 31.6 |  | 39.9 µM |
| O=C1NC2(CCCCC2)C(=O)N1CCN(CCCl)CCCl | > 25 | > 250 |  | > 25 | 11.8 | 25 µM and 183 µM | > 25 | > 250 |  | 25 | 19.5 | 25 µM and 175 µM | > 25 | > 250 | > 25 µM and 138 µM | > 250 | > 25 | > 250 | 15.7 | 25 µM and 249 µM |
| Cc1ccc(-c2nc(-c3nccc4ccccc34)oc2-c2ccccc2)cc1 |  | > 100 |  | > 100 |  | > 100 µM |  | > 100 |  | > 100 |  | > 100 µM |  | > 100 |  | > 100 |  | > 100 |  | > 100 µM |
| C#C[C@@]1(O)[C@@H](CO)O[C@@H](n2cc(C(F)(F)F)c3c(N)ncnc32)[C@@H]1O | 1.53 | > 100 | 0.962 | 4.69 | 0.278 | 0.984 µM | 0.207 | 8.3 | 0.306 | 1.7 | 2.19 | > 100 µM | 0.886 | 4.56 | 2.18 µM | 8.09 | 0.688 | 4.38 | 0.536 | 10.6 µM |
| COS(C)(=O)=O |  | > 2 |  | > 2 |  | > 2 µM |  | > 2 |  | > 2 |  | > 2 µM |  | > 2 |  |  |  |  |  | > 2 µM |
| Cc1ccc(Cl)c(NS(=O)(=O)c2ccc(-c3cnc(C4CC4)o3)cc2)c1 | 0.129 | > 100 | 0.299 | 14.8 | 0.0451 |  | 0.0517 | 16.2 | 0.0549 | > 63.3 | 0.0531 | 10.1 µM | 0.318 | 24.8 | 0.0377 µM | 0.182 | 0.399 | 3.72 | 0.102 | 20.4 µM |
| O=C(Nc1cc(Cl)ccc1O)c1cccc(Nc2ccnc(C(F)(F)F)c2)c1 | 2.42 | 13.8 | 2.18 | 12.6 | 0.935 | 4.03 µM | 11.1 | 31.8 | 0.811 | 15.2 | 2.61 | 12.7 µM | 0.822 | 4.04 | 2.38 µM | 11.1 | 1.3 | 3.83 | 1.95 | 13.2 µM |
| CC(=O)/C(Br)=C/c1ccc(Br)o1 | 26 | > 59.6 | 5.94 | 18.6 | 2.53 | 8.58 µM | 4.21 | 14.6 | 1.72 | 5.42 | 6.05 | 12.4 µM | 4.73 | 13.1 | 18.7 µM | 38.7 | 10.3 | 22.6 | 14.2 | 30.9 µM |
| COc1ccc(C(=O)c2cc3c(N)c(C(=O)Nc4cccc(Br)c4C)sc3nc2C)cc1 | 0.0541 | > 100 | 0.123 | > 100 | 0.0282 | 0.0954 µM | 0.0509 | > 100 | 0.0354 |  | 0.0562 | > 100 µM | 0.037 |  | 0.0405 µM |  | 0.193 | 1.81 | 0.0962 |  |
| CCCc1nc(Cl)c(Cl)c(Cl)n1 |  | > 96.4 |  | 77.9 |  | 37.2 µM |  | > 100 |  | > 50.7 |  | 27.7 µM |  | 3.94 |  | > 100 |  | > 100 |  | > 100 µM |
| CCC(C)C1=C(O)[N+]2([O-])Oc3ccc(C4=C(O)C(=O)C(c5ccc(O)cc5)=C(O)C4=O)cc3OC2(C(C)CC)C(=O)N1O (centres undefined) | 4.95 | 83.6 | 8.74 | > 100 | 14.2 | 86.7 µM | 31.4 | > 100 | 1.25 | 7.81 | 3.77 | 30.4 µM | 6.74 | > 100 | 13.9 µM | > 100 | 6.82 | 27.3 | 4.26 | > 100 µM |
| O=C(Nc1ccccc1)OC1OC(COC(=O)c2ccccc2)C(OC(=O)c2ccccc2)C1OS(=O)(=O)c1ccc([N+](=O)[O-])cc1 (centres undefined) |  | > 100 |  | > 100 |  | > 100 µM |  | > 100 |  | > 100 |  | > 100 µM |  | > 100 |  | > 100 |  | > 100 |  | > 100 µM |
| Clc1cccc(CNc2c3ccccc3nc3ccccc23)c1 | 2.89 | 12.4 | 2.34 | 7.19 | 1.9 | 4.35 µM | 1.98 | 10.2 | 1.47 | 4.55 | 1.67 | 4.82 µM | 1.74 | 4.18 | 1.51 µM | 3.08 | 1.72 | 3.13 | 1.95 | 4.2 µM |
| COc1cc(-c2nc3ccccc3o2)cc(CN2CCCCC2)c1O | 5.44 | 26.9 | 2.45 | 9.16 | 4.77 | 36.9 µM |  |  | 5.24 | 71.9 | 14.3 | > 100 µM | 2.85 | > 100 | 1.85 µM | 6.6 | 1.09 | 2.3 | 2.84 | 10.9 µM |
| O=C(NCCOCCOCCOCCNC(=O)c1cc2c(o1)C(=O)c1ccccc1C2=O)NC12CC3CC(CC(C3)C1)C2 | 2.06 | 8.03 | 1.5 | 3.25 | 2.16 | 6.46 µM | 2.6 | 6.79 | 2.37 | 11.7 | 2.37 | 11.5 µM | 1.87 | 5.63 | 1.65 µM | 3.07 | 0.303 | 1.02 | 1.19 | 2.93 µM |
| CCN1C(=O)N(CC)C2C1NN=c1s/c(=C3\C(=O)N(C4CCCC4)c4ccccc43)c(=O)n12 (centres undefined) | 3.47 | 40.5 | 2.03 | 7.84 | 1.76 | 4.94 µM | 0.695 | > 100 | 0.392 | > 100 | 0.519 | > 100 µM | 1.91 | 7.31 | 1.6 µM | 14.4 |  |  | 0.906 | > 100 µM |
| CC1=C(C(=O)Nc2ccc(F)c(Cl)c2)C(c2cccc(Oc3ccccc3)c2)NC(=S)N1 (centres undefined) | 32.2 | > 50 | 14.1 | 32.4 | 17.4 | > 50 µM |  |  | 14.3 | > 50 | 15.9 | > 50 µM | 16.8 | > 50 | 15.6 µM | > 50 | 10.2 | 19.6 | 13.5 | 33.6 µM |
